For one molecule, stability in solution results are on record in patent US8426415B2, “Human ADAM-10 inhibitors” (Symphony Evolution, Inc., priority 2007, dated 2013).

Structures are written as SMILES.

This series is described as follows: stability in solution of the free hydroxamic acid (observed during purification). The conditions noted are these: degradation during lengthy column elution and solvent evaporation on pilot scale. It counts as physicochemical. From the text: The purity of hydroxycarbamoylpiperazine of formula VIII obtained after part (i) ranged from 84% to 92%. The observed yields were between 63% and 78%. This hydroxycarbamoylpiperazine was of insufficient purity to produce pure magnesium salt/complex of formula VI suitable for pharmaceutical use. The direct conversion of hydroxycarbamoylpiperazine of formula VIII to the magnesium salt/complex of formula VI by omitting parts (ii) and (iii) yielded the magnesium salt/complex with the purity ranging from 96% to 97%. We discovered that this problem could be solved by first obtaining and separating a benzhydrylpiperazine complex of formula IX prior to the conversion to the magnesium salt/complex of […]. Yields for the process that included parts (i)-(iv) ranged from 81% to 86%. The purity of the magnesium salt/complex of […] was at least 99%; specifically, between 99.4% and 99.7%.

On to `COCCOC(=O)N1CCN(S(=O)(=O)c2cc(F)c(Oc3ccc(Cl)cc3)c(F)c2)[C@@H](C(=O)NO)C1` [formula VIII, 4-(4-(4-chlorophenoxy)-3,5-difluorophenylsulfonyl)-3-(hydroxycarbamoyl)piperazine-1-carboxylic acid, (R)-2-methoxyethyl ester], for which the stability in solution result is “poor stability in solution”.
